Assay [1] concerns Porcine atria myofibrils (atrial myosin ATPase). Description: Myofibril ATPase assay, porcine atria myofibrils. It counts as biochemical. The settings on record: porcine atria myofibrils. Summed up: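 Porcine atrial myofibrils were tested in a PK/LDH-coupled system where ADP from myosin ATPase drives NADH oxidation. Absorbance at 340 nm was read every 1.5-2 min for 75 min and slopes were normalized to vehicle wells. A 4-parameter logistic fit gave Y75 (25% inhibition) or Y125 (activation) concentrations.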

A further assay relates to SD rats. Description: Echocardiography of systolic cardiac performance (HR, FS, LV volumes, SWT) after a single oral dose. It counts as in vivo. The settings on record: Rattus norvegicus, single dose 10 mg/kg PO, ~2 hrs post-dosing, isoflurane-anesthetized. Here is the method: Example 2. Echocardiogram Data
Experiments were performed to evaluate the in vivo ability of the compounds of the disclosure to modulate systolic cardiac performance. Non-invasively echocardiography was used to assess cardiac indicators in isoflurane-anesthetized SD rats. A set of conscious rats were treated with either vehicle control (0 mg/kg PO; n=78) or a single dose of a test compound (10 mg/kg PO, n=2 to 6/compound) via oral gavage. Cardiac function/geometry were recorded at two separate time-points/days: once prior to dosing (e.g., at baseline, day −2) and at ˜2 hrs post-dosing (day 0). In these experiments, heart rate (HR), echocardiography-derived indices of left-ventricular systolic performance, as well as dimensions/volumes were measured using a high-frequency transducer and parasternal long-axis transthoracic views (Vevo3100, VisualSonic). LV fractional shortening (FS), an index of systolic function, was defined as the end-diastole normalized change in internal dimensions divided by the difference in diameter (LVid) of the left ventricle between end-systole (LVids) and end-diastole (LVidd) (e.g., FS=100·[LVidd−LVids]/LVidd). LV volumes were derived using the Teichholz formula (LVV=[7·LVid^3]/[2.4+LVid]). In addition, a systolic wall-thickening index (SWT) was also evaluated. SWT is defined as the relative ratio (end-diastole normalized) of left-ventricular (anterior and posterior) wall-thickness change during systole; e.g., SWT={[(anterior LV wall thickness in systole−anterior LV wall thickness in diastole)]+[(posterior LV wall thickness in systole−posterior LV wall thickness in diastole)]}/{2*diastolic thickness}. In all cases, blood samples were taken (via either tail-vein micro-sampling or cardiac-puncture) at the time of each echocardiographic examination in order to establish pharmacokinetic (PK)/pharmacodynamics (PD) relationships.

Assay [2] concerns the target T1, Porcine ventricle myofibrils (ventricular myosin ATPase) (Sus scrofa, UniProt P79293).
T1 construct: Myofibrils from porcine cardiac muscle was isolated from the left ventricle of Yucatan minipigs; tissue Exemplar Genetics; host or cells: left ventricle of Yucatan minipigs, myofibrils prepared in house
Description: Myofibril ATPase assay, porcine ventricle myofibrils. It is filed as biochemical, porcine (Yucatan minipigs). As to conditions: porcine ventricle myofibrils. Summed up:
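ATPase activity of porcine left-ventricular myofibrils is tracked as the slope of NADH loss at 340 nm through a PK/LDH couple. Values are the concentrations that bring activity to 75% (inhibitors) or 125% (activators) of vehicle.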

Assay [3] concerns Rabbit Psoas myofibrils (skeletal myosin ATPase). Nature of the assay: Myofibril ATPase assay, rabbit psoas (skeletal) myofibrils. It is filed as biochemical. As to conditions: rabbit psoas myofibrils. Summed up: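 ATPase activity of Triton-washed myofibrils was measured by PK/LDH coupling, following NADH loss at 340 nm every 1.5–2 min for 75 min in PIPES/Ca/EGTA buffer at pH 7.0. Slopes, normalized to vehicle (100%), were fitted to a 4-parameter logistic model. Values are Y75 (25% inhibition) or Y125 (activators).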

Where [4] appears, read: EDV change vs vehicle, read-out: EDV % vs. VEH.
[5] abbreviates: LV fractional shortening change vs vehicle, read-out: FS % vs. VEH.
Setting [6] is: SWT change vs vehicle, read-out: SWT % vs. VEH.
Where [7] appears, read: heart rate change vs vehicle, read-out: HR % vs. VEH.

The record followed here is patent US12448369B2 (Edgewise Therapeutics, Inc., priority 2023, dated 2025).

Where two headings read alike, the source gives them in different places.

T1 sequence (P79293 whole entry): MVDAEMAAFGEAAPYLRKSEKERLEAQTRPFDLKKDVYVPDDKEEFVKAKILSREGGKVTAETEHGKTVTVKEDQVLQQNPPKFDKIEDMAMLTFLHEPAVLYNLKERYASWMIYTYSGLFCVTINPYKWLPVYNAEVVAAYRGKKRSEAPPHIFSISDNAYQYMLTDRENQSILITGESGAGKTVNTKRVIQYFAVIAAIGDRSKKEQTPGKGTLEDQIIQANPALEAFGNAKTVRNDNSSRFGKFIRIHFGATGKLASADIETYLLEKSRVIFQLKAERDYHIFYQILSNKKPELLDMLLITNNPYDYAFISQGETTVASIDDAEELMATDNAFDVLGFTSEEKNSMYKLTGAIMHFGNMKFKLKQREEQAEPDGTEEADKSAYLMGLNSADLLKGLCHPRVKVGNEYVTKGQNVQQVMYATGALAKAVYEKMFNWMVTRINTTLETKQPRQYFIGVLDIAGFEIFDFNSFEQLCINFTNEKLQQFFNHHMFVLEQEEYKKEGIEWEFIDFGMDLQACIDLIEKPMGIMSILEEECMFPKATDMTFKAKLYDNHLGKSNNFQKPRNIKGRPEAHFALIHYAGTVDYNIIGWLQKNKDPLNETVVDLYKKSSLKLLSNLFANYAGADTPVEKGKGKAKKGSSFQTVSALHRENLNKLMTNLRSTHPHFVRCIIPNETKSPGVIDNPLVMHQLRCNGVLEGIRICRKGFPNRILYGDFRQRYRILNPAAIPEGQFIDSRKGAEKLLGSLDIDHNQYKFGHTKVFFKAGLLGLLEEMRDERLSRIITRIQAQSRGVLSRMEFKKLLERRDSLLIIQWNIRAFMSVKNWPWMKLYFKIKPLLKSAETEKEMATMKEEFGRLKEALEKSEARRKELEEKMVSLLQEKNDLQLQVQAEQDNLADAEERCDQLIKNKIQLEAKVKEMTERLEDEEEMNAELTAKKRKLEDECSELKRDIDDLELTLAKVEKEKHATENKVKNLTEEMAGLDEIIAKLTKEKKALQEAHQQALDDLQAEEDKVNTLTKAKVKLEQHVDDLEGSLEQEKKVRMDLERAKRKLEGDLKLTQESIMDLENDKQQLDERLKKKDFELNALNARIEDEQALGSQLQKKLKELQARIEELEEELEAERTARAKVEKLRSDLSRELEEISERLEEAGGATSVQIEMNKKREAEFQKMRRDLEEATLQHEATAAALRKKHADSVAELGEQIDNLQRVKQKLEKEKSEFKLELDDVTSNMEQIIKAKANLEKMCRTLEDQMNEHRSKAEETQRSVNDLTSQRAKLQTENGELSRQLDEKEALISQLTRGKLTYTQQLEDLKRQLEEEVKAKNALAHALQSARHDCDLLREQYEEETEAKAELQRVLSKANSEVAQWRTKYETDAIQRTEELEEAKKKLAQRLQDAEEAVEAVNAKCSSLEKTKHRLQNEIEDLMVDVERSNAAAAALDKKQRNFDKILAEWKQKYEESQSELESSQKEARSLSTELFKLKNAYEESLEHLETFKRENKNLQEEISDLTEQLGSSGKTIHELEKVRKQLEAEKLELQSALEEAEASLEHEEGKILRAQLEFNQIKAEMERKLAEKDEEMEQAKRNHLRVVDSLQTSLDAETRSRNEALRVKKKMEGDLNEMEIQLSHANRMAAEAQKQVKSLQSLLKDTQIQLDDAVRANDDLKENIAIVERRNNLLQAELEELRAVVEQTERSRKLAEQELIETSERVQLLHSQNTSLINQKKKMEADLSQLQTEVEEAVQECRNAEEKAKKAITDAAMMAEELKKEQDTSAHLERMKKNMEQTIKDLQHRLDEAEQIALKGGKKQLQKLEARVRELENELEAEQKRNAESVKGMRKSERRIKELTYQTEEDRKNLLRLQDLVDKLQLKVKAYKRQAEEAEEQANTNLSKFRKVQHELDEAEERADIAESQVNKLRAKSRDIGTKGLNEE

Take `Cc1c(CC(=O)N[C@H](C)c2ncc(C#N)cc2F)c(=O)[nH]c2ccc(F)c(F)c12` [compound 41]: in assay [1] (Y75 value (no ‡ mark)), the “Atrial EC25” value came out at 130 nM. Besides, the change in vivo at 10 mg/kg is 1 to 20% with SD rats (setting [4]), 1 to 20% in the assay on SD rats (setting [5]), at least 21% in the assay on SD rats (setting [6]) and 1 to 20% in the assay on SD rats (setting [7]). Further, the “Ventricular EC25” value in assay [2] (Y75 value (no ‡ mark)) worked out at 450 nM. For the same compound, the “Skeletal EC25” value in assay [3] (Y75 value (no ‡ mark)) amounted to 70 nM.
Regarding `C[C@@H](NC(=O)Cc1cc2c(F)c(F)ccc2[nH]c1=O)c1ncc(C#N)cc1F` [compound 35], in assay [1] (Y75 value (no ‡ mark)), the “Atrial EC25” value was 80 nM. Moreover, the change in vivo at 10 mg/kg in the assay on SD rats (setting [4]) was 11 to 20%; with SD rats (setting [5]) it was 1 to 20%; in the assay on SD rats (setting [6]) it was 0%; in the assay on SD rats (setting [7]), 1 to 10%. Also, the “Ventricular EC25” value in assay [2] (Y75 value (no ‡ mark)) worked out at 150 nM. Moreover, the “Skeletal EC25” value in assay [3] (Y75 value (no ‡ mark)) worked out at 90 nM.
Take `Cc1nccc2[nH]c(=O)c(CC(=O)N[C@@H](C)c3ccc(C#N)cc3F)c(C)c12` (single isomer, unassigned) [compound 256]: in assay [1] (Y75 value (75% activity relative to no compound)), the “Atrial EC25” value was found to be 80 nM. Besides, the change in vivo at 10 mg/kg lay within 1 to 20% with SD rats (setting [4]), 1 to 20% in the assay on SD rats (setting [5]), 1 to 20% with SD rats (setting [6]) and 1 to 10% with SD rats (setting [7]). Moreover, in assay [2] (Y75 value), the “Ventricular EC25” value stood at 190 nM. Further, the “Skeletal EC25” value in assay [3] (Y75 value) stood at 20 nM.
Regarding `C[C@@H](NC(=O)Cc1cc2c(F)c(F)ccc2[nH]c1=O)c1ncc(C#N)cn1` (single isomer, unassigned) [compound 2071], the “Atrial EC25” value in assay [1] (Y75 value (no ‡ mark)) was 1070 nM. Moreover, the change in vivo at 10 mg/kg with SD rats (setting [4]) is 1 to 20%; with SD rats (setting [5]), 1 to 20%; in the assay with SD rats (setting [6]), 11 to 20%; in the assay with SD rats (setting [7]), 1 to 20%. In assay [2] (Y75 value (no ‡ mark)), the “Ventricular EC25” value came to 2620 nM. Besides, in assay [3] (Y75 value (no ‡ mark)), the “Skeletal EC25” value turned out to be 2930 nM.
Take `Cc1c(CC(=O)N[C@@H](C)c2ccc(F)cc2F)c(=O)[nH]c2ccc(F)c(C#N)c12` [compound 83]: in assay [1] (Y75 value (no ‡ mark)), the “Atrial EC25” value was determined as 40 nM. For the same compound, the change in vivo at 10 mg/kg in the assay with SD rats (setting [4]) was in the range of 1 to 20%; in the assay on SD rats (setting [5]), 11 to 20%; in the assay on SD rats (setting [6]), 11 to 20%; in the assay on SD rats (setting [7]), 1 to 10%. The “Ventricular EC25” value in assay [2] (Y75 value (no ‡ mark)) is 100 nM. Besides, the “Skeletal EC25” value in assay [3] (Y75 value (no ‡ mark)) is 10 nM.
